# Results published in patent US20220133846A1, “NOVEL ANTIMICROBIAL COMPOUND AND USES THEREOF” (priority 2019, published 2022).
# “And” between values parts separate entries of the source, which are not always exact repeats. Equal values may be shown once. Read-outs that look alike come from different tables or passages of the source.
# B1: platelet factor 4: a control cationic peptide (protein, UniProt P02776 32-101, looked up)
# Platelet factor 4: EAEEDGDLQCLCVKTTSQVRPRHITSLEVIKAGPHCPTAQLIATLKNGRKICLDLQAPLYKKIIKKLLES
# Legend:
# [1] = tested on: broad spectrum of Gram-positive bacteria; conditions: cited from earlier work
# [2] = tested on: S. aureus NRS 384 (USA300-0114); experiment: Murine neutropenic thigh infection model; assay type: in vivo, mice; conditions: 25 mg/kg, both studies
# [3] = tested on: S. aureus (SA) and MRSA biofilms; assay type: cell-based
# [4] = tested on: Acinetobacter guillouiae; experiment: MIC against clinical isolates (Christiana Hospital); assay type: cell-based; conditions: clinical strain CH42, drug resistance N
# [5] = tested on: Acinetobacter ursingii; experiment: as above; assay type: cell-based; conditions: clinical strain CH41, drug resistance N
# [6] = tested on: Acinetobacter modestus; experiment: as above; assay type: cell-based; conditions: clinical strain CH43, drug resistance N
# [7] = tested on: Acinetobacter septicus; experiment: as above; assay type: cell-based; conditions: clinical strain CH44, drug resistance N
# [8] = tested on: Acinetobacter baumannii; experiment: microbe, parasite or virus in culture
# [9] = tested on: Acinetobacter calcoaceticus; experiment: MIC against clinical isolates (Christiana Hospital); assay type: cell-based; conditions: clinical strain CH37, drug resistance N
# [10] = tested on: A. baumannii (CH-46); experiment: Frequency of resistance (FoR) in vitro; assay type: cell-based
# [11] = tested on: Acinetobacter baumannii
# [12] = tested on: S. aureus; experiment: Prevention of biofilm formation by pre-coating wells; assay type: cell-based; conditions: data not shown
molecule,measurement,setting,value
C=C1NC(=O)CC[C@@H](C(=O)O)NC(=O)[C@H](NC(=O)[C@H](CCCCN)NC(=O)[C@@H](N)Cc2c[nH]c3ccccc23)CSC[C@@H](C(=O)N[C@@H]2C(=O)N3CCC[C@H]3C(=O)NCC(=O)N[C@H](C(=O)N[C@H](C(=O)N[C@@H]3C(=O)NCC(=O)N[C@@H](C)C(=O)N[C@@H](CC(C)C)C(=O)N[C@@H](CCC(N)=O)C(=O)N/C(=C/C)C(=O)N[C@H](C(=O)N[C@@H](Cc4ccccc4)C(=O)N[C@@H](CC(C)C)C(=O)N[C@@H](CCC(N)=O)C(=O)N[C@@H]4C(=O)N[C@@H](CC(C)C)C(=O)N[C@H]5C(=O)N[C@@H](CSC4C)C(=O)NC(=O)[C@H](CC(N)=O)N[C@H](C(=O)N[C@@H](CCCCN)C(=O)N[C@H](C(=O)NC(=C)C(=O)N[C@@H](CCCCN)C(=O)O)[C@@H](C)CC)CSC5C)CSC3C)C(C)C)CSC2C)N[C@@H](CC(C)C)C(=O)NC1=O (some centres unmarked) [subtilin],Antimicrobial activity,[1],nanomolar range
"CN[C@H](CC(C)C)C(=O)N[C@H]1C(=O)N[C@@H](CC(N)=O)C(=O)N[C@H]2C(=O)N[C@H]3C(=O)N[C@H](C(=O)N[C@H](C(=O)O)c4cc(O)cc(O)c4-c4cc3ccc4O)[C@H](O)c3ccc(c(Cl)c3)Oc3cc2cc(c3O[C@@H]2O[C@H](CO)[C@@H](O)[C@H](O)[C@H]2O[C@H]2C[C@](C)(N)[C@H](O)[C@H](C)O2)Oc2ccc(cc2Cl)[C@H]1O [vancomycin, reference compound]",Bacterial load relative to pre-treatment levels,[2],reduced bacterial load to or below pre-treatment levels
same,Effect on viability of pre-formed biofilm,[3],not effective
C[C@@H](O)[C@H]1C(=O)N2C(C(=O)O)=C(SCCN=CN)C[C@H]12 [Imipenem],MIC,"[4]; Acinetobacter guillouiae, read-out: MIC",7.81 µg/mL
same,MIC,"[5]; Acinetobacter ursingii, read-out: MIC",1 µg/mL
same,MIC,"[6]; Acinetobacter modestus, read-out: MIC",0.5 µg/mL
same,MIC,"[7]; Acinetobacter septicus, read-out: MIC",1.46 µg/mL
same,MIC,"[8]; clinical strain CH36, drug resistance N",250 µg/mL
same,MIC,"[8]; clinical strain CH38, drug resistance N",125 µg/mL
same,MIC,"[8]; clinical strain CH39, drug resistance N",15.6 µg/mL
same,MIC,"[8]; clinical strain CH40, drug resistance N",31.2 µg/mL
same,MIC,"[8]; clinical strain CH45, drug resistance Y",125 µg/mL
same,MIC,"[8]; clinical strain CH46, drug resistance Y",250 µg/mL
same,MIC,"[8]; clinical strain CH47, drug resistance Y",3.91 µg/mL
same,MIC,"[8]; clinical strain CH48, drug resistance Y",7.81 µg/mL
same,MIC,"[8]; clinical strain CH49, drug resistance Y",62.5 µg/mL
same,MIC,"[8]; clinical strain CH50, drug resistance Y",62.5 µg/mL
same,MIC,"[8]; clinical strain CH51, drug resistance Y",31.2 µg/mL
same,MIC,"[8]; clinical strain CH52, drug resistance Y",31.2 µg/mL
same,MIC,"[8]; clinical strain CH53, drug resistance Y",31.2 µg/mL
same,MIC,"[8]; clinical strain CH54, drug resistance Y",7.81 µg/mL
same,MIC,"[8]; clinical strain CH55, drug resistance Y",46.9 µg/mL
same,MIC,"[9]; Acinetobacter calcoaceticus, read-out: MIC",0.5 µg/mL
Colistin,MIC,[4],3.91 µg/mL
same,MIC,[5],1.95 µg/mL
same,Frequency of resistance (FoR),[10]; 2X MIC,2.7 × 10^−7
same,Frequency of resistance (FoR),[10]; 3X MIC,3.7 × 10^−8
same,Frequency of resistance (FoR),[10]; 4X MIC,5.2 × 10^−8
same,Frequency of resistance (FoR),[10]; 5X MIC,5.4 × 10^−8
same,Frequency of resistance (FoR),[10]; 10X MIC,2.0 × 10^−9
same,MIC,[6],7.81 µg/mL
same,MIC,[7],1.95 µg/mL
same,MIC,[11],3.91 µg/mL and 5.86 µg/mL and 7.81 µg/mL
same,MIC,[9],3.91 µg/mL
B1,Effect of coating wells on S. aureus attachment,[12],no effect
